Measured values published in patent US12103916B2, “Antifungal compounds” (University of Kentucky Research Foundation, priority 2016, dated 2024).
Read-outs that look alike come from different tables or passages of the source. Marks after values point to notes of the source that are not given here.

Experiments:
[1] = tested on: C. albicans ATCC 10231 (strain A); experiment: Time-kill assay, strain A; format: cell-based, Candida albicans; settings: Ex.2 series, compound at 4×MIC, VOR control
C. albicans ATCC 64124 [2] = settings: Table 1; strain B; control azoles; previously reported (refs 5, 16); cited from earlier work
[3] = tested on: Candida albicans ATCC 10231; settings: Table 1; strain A; control azoles FLC, ITC, POS, VOR; previously reported (refs 5, 16); cited from earlier work
[4] = tested on: C. albicans ATCC MYA-2876(S); settings: Table 1; strain C; control azoles; previously reported (refs 5, 16); cited from earlier work
[5] = tested on: C. albicans ATCC MYA-2310(S); settings: Table 1; strain E; control azoles; previously reported (refs 5, 16); cited from earlier work
[6] = tested on: C. albicans ATCC MYA-1237(R); settings: Table 1; strain F; control azoles; previously reported (refs 5, 16); cited from earlier work
[7] = tested on: Candida glabrata ATCC 2001; settings: Table 1; strain H; control azoles; previously reported (refs 5, 16); cited from earlier work
[8] = tested on: Candida parapsilosis ATCC 22019; settings: Table 1; strain J; control azoles; previously reported (refs 5, 16); cited from earlier work
C. albicans ATCC 64124 [9] = experiment: MIC determination, strain B; format: cell-based, Candida albicans; settings: Candida albicans, ATCC64124
Protocol: (§1) The antifungal activity of our new azole compounds 1-9 and 24-41 was first evaluated against a panel of seven Candida albicans strains (A-G), three non-albicans Candida strains […], and three Aspergillus strains (K-M) in a concentration range of 0.03-31.2 μg/mL (Table 1). […] For all of our azole derivatives we report their MIC-0 values against C. albicans ATCC 10231 (strain A) and all Aspergillus strains (K-M), which correspond to complete growth inhibition of these fungi. […] The commercially available antifungals AmB, FLC, ITC, POS, and VOR were used as reference drugs for comparison. The MIC values presented for these five control drugs were either tested herein or correspond to our previously published data^5, 16 as indicated in Table 1.
(§2) Antifungal activity in the absence or presence of serum. The antifungal activity of the newly prepared alkylated piperazine/morpholine-azole hybrids 16-28, of intermediate 14 that we used to verify that only final compounds exert antifungal activity, as well as that of alkylated piperazine/morpholine derivatives 1-10 were first evaluated against a panel of seven C. albicans (ATCC 10231 (A), ATCC 64124(R) (B), ATCC MYA-2876(S) (C), ATCC 90819(R) (D), ATCC MYA-2310(S) (E), ATCC MYA-1237(R) (F), and ATCC MYA-1003(R) (G)), three non-albicans Candida (C. glabrata ATCC 2001 (H), C. krusei ATCC 6258 (I), and C. parapsilosis ATCC 22019 (J)), and three Aspergillus (A. flavus ATCC MYA-3631 (K), A. nidulans ATCC 38163 (L), and A. terreus ATCC MYA-3633 (M)) strains using a concentration range of 0.03-31.3 μg/mL (Table 2).
(§3) Commercially available antifungal agents such as AmB, CAS, FLC, and VOR were used as positive controls for comparison. […] It is important to note that all comparisons to follow will be done by using the MIC values reported in μg/mL as the data were collected that way. However, we also present in parentheses in Table 2 the corresponding values in micromolar.
(§4) We used the commercially available antifungal agents such as AmB, caspofungin (CAS), FLC, and VOR as positive controls for comparison. For derivatives 5-16 as well as the reference drugs AmB and CAS, we reported MIC-0 values, which correspond to no visible growth. […] In this manuscript, we performed all activity comparisons by using the MIC values reported in μg/mL (Note: the corresponding MIC values are also provided in μM into parentheses in Tables 1, 2, S1, and S2).

[10] = tested on: cell membrane integrity of C. albicans ATCC 10231 (strain A); experiment: Membrane permeabilization assay (propidium iodide uptake); format: cell-based, Candida albicans; settings: Ex.3 series; 4×MIC
Protocol: FIG. 20 includes the Effect of the controls VOR (negative) and KANB (C14) (positive) as well as compounds 5-9 on the cell membrane integrity of C. albicans ATCC 10231 (strain A). […] The experiments were performed in duplicate.
PI is a membrane impermeable dye that cannot enter the intact cell unless the cell membrane is damaged. Using these compounds, we also wanted to determine how do the lengths of the alkyl side chains correlate with the membrane disruption potential of these antifungal agents.
Membrane permeabilization assay. […] Based on these findings, we assumed that the hybrids generated in this study could also potentially cause fungal death by disrupting the fungal membrane. To investigate this possible mechanism of action, we evaluated the effect of compounds 20 and 26 on fungal cell membrane integrity by using propidium iodide (PI) dye as a probe (FIG. 12). […] Afterwards, the dye binds to nucleic acid and fluoresces, which can be observed under a fluorescence microscope. […]
Therefore, we decided to study the potential effect of compounds 8 and 9 with C12 and C14 linear alkyl chains to determine the impact of chain length on membrane disruption (FIG. 20). […] The propidium iodide (PI) dye was used as a probe as it can only enter cells with compromised membrane and bind to nucleic acid to emit fluorescence, which can be observed under a fluorescence microscope. […]

[11] = tested on: Candida glabrata ATCC 2001; experiment: MIC determination, strain H; format: cell-based; settings: Nakaseomyces glabratus, ATCC2001
Protocol: as §1, §2, §3, §4

Candida krusei ATCC 6258 = experiment: MIC determination, strain I; format: cell-based; settings: Pichia kudriavzevii, ATCC6258
Protocol: as §1, §2, §3, §4

[12] = read-out: MIC (MIC-2), in parentheses

In the case of C[C@@H](c1ncncc1F)[C@](O)(Cn1cncn1)c1ccc(F)cc1F [VOR, voriconazole], the “effect in time-kill assay” value [1] is given as “fungistatic”, the “MIC (MIC-2)” value (C. albicans ATCC 64124 [2]) is given as 3.9^c μg/mL and the “MIC (MIC-2)” value [3] is given as 0.24^c μg/mL. The “MIC (MIC-2)” value [4] was 1.95^c μg/mL, the “MIC (MIC-2)” value [5] was 0.975^c μg/mL and the “MIC (MIC-2)” value [6] was 7.8^c μg/mL. For the same molecule, the “MIC (MIC-2)” value [7] was 0.06^c μg/mL, the “MIC (MIC-2)” value [8] was <0.03^c μg/mL and the MIC (C. albicans ATCC 64124 [9]; read-out: MIC (MIC-2)) was 3.9 µg/mL. For the same molecule, the MIC (C. albicans ATCC 64124 [9]; [12]) was 11.2 µM, the “PI dye uptake by fungal cells” value [10] was “did not allow for PI uptake” and the MIC ([11]; read-out: MIC (MIC-2)) was 0.06 µg/mL. For the same molecule, the MIC [11, 12] was 0.17 µM, the MIC (Candida krusei ATCC 6258; read-out: MIC (MIC-2)) was 0.12 µg/mL and the MIC (Candida krusei ATCC 6258; [12]) was 0.34 µM.
